# Reference: patent US20220088024A1, “METHODS FOR TREATING CANCER USING TOZADENANT” (Biotie Therapies, Inc., priority 2018, published 2022)
# “And” between values parts separate entries of the source, which are not always exact repeats. Equal entries are not always repeated.
# Experiments:
# [1] = tested on: CT26 colon carcinoma tumor; test: Example 4: anti-tumor responses of SYN-115 in the CT26 tumor mouse model (tumor area, survival); assay type: in vivo, BALB/c mice; design: key: tumor area, width*length, in mm^2
# Experimental: The BALB/c mouse colon carcinoma cell line CT26 was cultured in RPMI supplemented with 10% FCS, GlutaMAX, and penicillin/streptomycin. Tumor cells are periodically verified to be Mycoplasma negative by the Victorian Infectious Diseases References Lab (Melbourne, VIC, Australia) by PCR analysis. 1×10^5 cells were resuspended in PBS and injected s.c. into BALB/c mice in a 100 μL volume. At day 9, tumors were measured and mice were randomized into distinct treatment groups to ensure that each group had tumors of similar size at the onset of treatment. Mice were treated i.p. at days 9, 13 and 17 with either isotype control (2A3; 200 μg/mouse) or anti-PD-1 mAb (RMP1-14, 200 μg/mouse) and where indicated, SYN-115 (Batch 71236AA002) at the indicated dose or vehicle control once-daily via oral gavage on days 14 to 29. To calculate a dose of SYN-115 mouse weight was estimated to be 20 g per mouse. Therefore, 100 mg/kg=2 mg per mouse in […] which is equivalent to 10 mg/ml. To make up 40 mL, 400 milligrams of SYN-115 was weighed and added into a Falcon tube, then 1 mL of Tween 80 was added and mixed into a paste and then 39 mL of 1% Methyl Cellulose was added. The solution was vortexed and then left on a rotating mixer for at least 2 hours and maintained at 4° C. Tumor measurements were taken 2-3 times per week. Tumor sizes were determined by width * length and mice were culled when tumors reached the ethical limit of 150 mm^2.
# [2] = tested on: AT-3ova CD73+ tumour (mouse breast carcinoma cell line AT-3); test: Example 2: anti-tumor responses of SYN-115 in the AT-3ova CD73+ tumour cell mouse model (tumor area); assay type: in vivo, C57/BL6 mice
# Experimental: The C57BL/6 mouse breast carcinoma cell line AT-3 was obtained from Dr. Trina Stewart (Griffith University, Nathan, QLD, Australia. Tumor cell lines were transduced to express chicken ovalbumin peptide and CD73 as previously described (1, 2, 3). Tumor cells are periodically verified to be Mycoplasma negative by the Victorian Infectious Diseases References Lab (Melbourne, VIC, Australia) by PCR analysis. Tumor cells were grown in DMEM supplemented with 10% FCS, GlutaMAX, and penicillin/streptomycin. 5×10^5 cells were resuspended in PBS and injected s.c. into C57/BL6 mice in a 100 μL volume. At day 14 tumors were measured and mice were randomized into distinct treatment groups to ensure that each group had tumors of similar size at the onset of treatment. Mice were treated i.p. at days 14, 18, 22, and 26 with either isotype control (2A3; 200 μg/mouse) or anti-PD-1 mAb (RMP1-14, 200 μg/mouse) and where indicated, SYN-115 (Batch 71236AA002) at the indicated dose or vehicle control once-daily via oral gavage on days 14 to 29. To calculate a dose of SYN-115 mouse weight was estimated to be 20 g per mouse. Therefore, 100 mg/kg=2 mg per mouse in 200 μL, which is equivalent to 10 mg/ml. To make up 40 mL, 400 milligrams of SYN-115 was weighed and added into a Falcon tube, then 1 mL of Tween 80 was added and mixed into a paste and then 39 mL of 1% Methyl Cellulose was added. The solution was vortexed and then left on rotating mixer for at least 2 hours and maintained at 4° C. Tumor measurements were taken 2-3 times per week. Tumor sizes were determined by width * length and mice were culled when tumors reached the ethical limit of 150 mm^2.
# [3] = tested on: B16F10 CD73 melanoma metastases; test: Example 8: number of lung tumor metastases in the B16F10 CD73 tumor mouse model; assay type: in vivo, C57/BL6 mice (A2A-/- or Wild-Type); details: 100 mg/kg once-daily oral gavage days 0 to 13, counted day 14, Batch 71236AA002
# Experimental: The C57/BL6 mouse melanoma cell line B16F10 CD73 was cultured in DMEM supplemented with 10% FCS, GlutaMAX, and penicillin/streptomycin. Tumor cells are periodically verified to be Mycoplasma negative by the Victorian Infectious Diseases References
# Lab (Melbourne, VIC, Australia) by PCR analysis. 2×10^5 cells were resuspended in PBS and injected i.v. into C57/BL6 mice (A2A^−/− or Wild-Type) in a 200 μL volume. At day 14, lungs were excised and the number of metastases counted under the dissecting microscope. Mice were dosed with either SYN-115 (Batch 71236AA002) at 100 mg/kg or vehicle control once-daily via oral gavage on days 0 to 13. To calculate a dose of SYN-115, mouse weight was estimated to be 20 g per mouse. Therefore, 100 mg/kg=2 mg per mouse in 200 μL, which is equivalent to 10 mg/ml. To make up 40 mL 400 milligrams of SYN-115 was weighed and added into a Falcon tube, then 1 mL of Tween 80 added and mixed into a paste and then 39 mL of 1% Methyl Cellulose was added. Solution was vortexed and then left on rotating mixer for at least 2 hours and maintained at 4° C.
structure (smiles),measurement,setting,value
"COc1ccc(N2CCOCC2)c2sc(NC(=O)N3CCC(C)(O)CC3)nc12 [SYN-115, 4-hydroxy-4-methyl-piperidine-1-carboxylic acid (4-methoxy-7-morpholin-4-yl-benzothiazol-2-yl)-amide]",Raw Tumor Measurements,"[1]; 2A3 (200 μg/mouse)+SYN-115 (30 mg/kg), Day 0",12.71 and 14.85 and 16.32 and 18.92 and 20.16 and 22.36
same,Raw Tumor Measurements,"[1]; 2A3 (200 μg/mouse)+SYN-115 (30 mg/kg), Day 4",37.62 and 42.12 and 40.7 and 53.2 and 38.4 and 52.56
same,Raw Tumor Measurements,"[1]; 2A3 (200 μg/mouse)+SYN-115 (30 mg/kg), Day 13",146.41 and 150.7 and 93.93 and 186.83
same,Raw Tumor Measurements,"[1]; 2A3 (200 μg/mouse)+SYN-115 (30 mg/kg), Day 15",188.94 and 100.8
same,Raw Tumor Measurements,"[1]; 2A3 (200 μg/mouse)+SYN-115 (30 mg/kg), Day 19",186.12
same,Raw Tumor Measurements,"[1]; 2A3 (200 μg/mouse)+SYN-115 (100 mg/kg), Day 0",12.76 and 14.8 and 17 and 18.9 and 20.5 and 21.12
same,Raw Tumor Measurements,"[1]; 2A3 (200 μg/mouse)+SYN-115 (100 mg/kg), Day 4",44.73 and 41.31 and 42.7 and 41.76 and 49.64 and 25.85
same,Raw Tumor Measurements,"[1]; 2A3 (200 μg/mouse)+SYN-115 (100 mg/kg), Day 6",53.4 and 59.78 and 73.04 and 58.32 and 71.76 and 42.92
same,Raw Tumor Measurements,"[1]; 2A3 (200 μg/mouse)+SYN-115 (100 mg/kg), Day 8",66.75 and 90.2 and 89 and 87.4 and 94.08 and 51.84
same,Raw Tumor Measurements,"[1]; 2A3 (200 μg/mouse)+SYN-115 (100 mg/kg), Day 13",187.53 and 175.56 and 213.12 and 203.68 and 164.56 and 110.4
same,Raw Tumor Measurements,"[1]; 2A3 (200 μg/mouse)+SYN-115 (100 mg/kg), Day 15",151.42
same,Raw Tumor Measurements,"[1]; Anti-PD-1 (200 ug)+SYN-115 (30 mg/kg), Day 22",108 and 136.64 and 120.64
same,Raw Tumor Measurements,"[1]; Anti-PD-1 (200 ug)+SYN-115 (30 mg/kg), Day 25",160.95 and 151.2 and 159.6
same,Tumor size (width * length),"[2]; 2A3 (200 μg/Mouse)+SYN-115 (100 mg/kg), Day 39",123.2 mm^2 and 91.35 mm^2 and 103.88 mm^2
same,Tumor size (width * length),"[2]; 2A3 (200 μg/Mouse)+SYN-115 (100 mg/kg), Day 45",143 mm^2
same,Tumor size (width * length),"[2]; Anti-PD-1 (200 ug)+SYN-115 (10 mg/kg), Day 50",48.38 mm^2 and 66.22 mm^2
same,Tumor size (width * length),"[2]; Anti-PD-1 (200 ug)+SYN-115 (10 mg/kg), Day 53",53.6 mm^2 and 83.72 mm^2
same,Tumor size (width * length),"[2]; Anti-PD-1 (200 ug)+SYN-115 (10 mg/kg), Day 57",63.19 mm^2 and 81.6 mm^2
same,Tumor size (width * length),"[2]; Anti-PD-1 (200 ug)+SYN-115 (10 mg/kg), Day 60",72.72 mm^2 and 80.04 mm^2
same,Tumor size (width * length),"[2]; Anti-PD-1 (200 ug)+SYN-115 (10 mg/kg), Day 64",91.64 mm^2 and 104.86 mm^2
same,Tumor size (width * length),"[2]; Anti-PD-1 (200 ug)+SYN-115 (10 mg/kg), Day 68",121.26 mm^2
same,Tumor size (width * length),"[2]; Anti-PD-1 (200 ug)+SYN-115 (30 mg/kg), Day 57",75.24 mm^2 and 44.22 mm^2
same,Tumor size (width * length),"[2]; Anti-PD-1 (200 ug)+SYN-115 (30 mg/kg), Day 60",89.25 mm^2 and 48.28 mm^2
same,Tumor size (width * length),"[2]; Anti-PD-1 (200 ug)+SYN-115 (30 mg/kg), Day 64",107.1 mm^2 and 69.52 mm^2
same,Tumor size (width * length),"[2]; Anti-PD-1 (200 ug)+SYN-115 (30 mg/kg), Day 68",92.22 mm^2
same,Tumor size (width * length),"[2]; Anti-PD-1 (200 ug)+SYN-115 (100 mg/kg), Day 45",101 mm^2 and 129.71 mm^2 and 75.84 mm^2
same,Tumor size (width * length),"[2]; Anti-PD-1 (200 ug)+SYN-115 (100 mg/kg), Day 50",136.4 mm^2
same,"Number of Tumor Metastases (lung), individual mice",[3],21 and 1 (2×) and 5 and 11 and 13 and 28 and 2 and 8
